Source: ChEMBL document CHEMBL3580546, “Structure-activity study of N-((trans)-4-(2-(7-cyano-3,4-dihydroisoquinolin-2(1H)-yl)ethyl)cyclohexyl)-1H-indole-2-carboxamide (SB269652), a bitopic ligand that acts as a negative allosteric modulator of the dopamine D2 receptor” (J Med Chem, 2015)

Key:
[1] = target: D(2) dopamine receptor (Homo sapiens) (UniProt P14416); assay: Negative allosteric modulator activity at wild type human dopamine D2L receptor expressed in FlpIn CHO […] assessed as ERK1/2 phosphorylation measured as equilibrium dissociation constant after 30 mins; format: cell-based
Chain of D(2) dopamine receptor (Homo sapiens) (P14416 whole entry): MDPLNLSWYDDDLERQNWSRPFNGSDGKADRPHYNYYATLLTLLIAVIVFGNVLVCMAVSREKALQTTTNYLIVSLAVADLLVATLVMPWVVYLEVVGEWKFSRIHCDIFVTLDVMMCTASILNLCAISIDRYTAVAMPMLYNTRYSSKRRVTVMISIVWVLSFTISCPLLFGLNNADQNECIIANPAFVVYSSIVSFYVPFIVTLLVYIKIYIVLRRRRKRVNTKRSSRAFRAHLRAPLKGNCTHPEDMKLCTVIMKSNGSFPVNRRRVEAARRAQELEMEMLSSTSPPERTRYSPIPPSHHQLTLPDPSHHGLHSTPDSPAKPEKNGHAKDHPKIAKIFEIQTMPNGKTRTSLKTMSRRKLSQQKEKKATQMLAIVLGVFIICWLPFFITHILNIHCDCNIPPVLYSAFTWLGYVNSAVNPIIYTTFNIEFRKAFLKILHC

[2] = target: D(2) dopamine receptor (Homo sapiens) (UniProt P14416); assay: Displacement of [3H]raclopride from wild type human dopamine D2L receptor expressed in FlpIn CHO cell membrane assessed as equilibrium dissociation constant after 3 hrs by MicroBeta counting analysis; format: cell membranes
[3] = target: D(2) dopamine receptor (Homo sapiens) (UniProt P14416); assay: Binding affinity to human dopamine D2 receptor

Structure (SMILES) | Kb [1] [µM] | pKb [1] | Kb [2] [µM] | pKb [2] | Kb [3] [µM]
CN(C(=O)c1cc2ccccc2[nH]1)[C@H]1CC[C@H](CCN2CCc3ccc(C#N)cc3C2)CC1 | 0.0912 | 7.04 | 0.117 | 6.93 | –
O=C(N[C@H]1CC[C@H](CCN2CCc3sccc3C2)CC1)c1cc2ccccc2[nH]1 | 0.339 | 6.47 | 2.24 | 5.65 | –
O=C(N[C@H]1CC[C@H](CCN2CCc3ccccc3C2)CC1)c1cc2ccccc2[nH]1 | 0.087 | 7.06 | 0.295 | 6.53 | –
N#Cc1ccc2c(c1)CN(CCCCCNC(=O)c1cc3ccccc3[nH]1)CC2 | 0.132 | 6.88 | 0.479 | 6.32 | –
N#Cc1ccc2c(c1)CN(CC[C@H]1CC[C@H](NC(=O)c3cc4cccnc4[nH]3)CC1)CC2 | 0.0234 | 7.63 | 0.0457 | 7.34 | –
N#Cc1ccc2c(c1)CN(CC[C@H]1CC[C@H](NC(=O)c3nc4ccccc4[nH]3)CC1)CC2 | 0.174 | 6.76 | 0.0813 | 7.09 | –
N#Cc1ccc2c(c1)CN(CC[C@H]1CC[C@H](NC(=O)c3nc4ccccc4o3)CC1)CC2 | 0.0182 | 7.74 | 0.263 | 6.58 | –
Cn1c(C(=O)N[C@H]2CC[C@H](CCN3CCc4ccc(C#N)cc4C3)CC2)cc2ccccc21 | 0.0724 | 7.14 | 0.151 | 6.82 | –
O=C(N[C@H]1CC[C@H](CCN2CCc3ccc(Br)cc3C2)CC1)c1cc2ccccc2[nH]1 | 0.138 | 6.86 | 0.17 | 6.77 | –
N#Cc1ccc2c(c1)CN(CC[C@H]1CC[C@H](NC(=O)C3=Cc4ccccc4C3)CC1)CC2 | 0.0229 | 7.64 | 0.151 | 6.82 | –
N#Cc1ccc2c(c1)CN(CC[C@H]1CC[C@H](NC(=O)[C@H]3CCCN3)CC1)CC2 | 0.0457 | 7.34 | 0.363 | 6.74 | –
COc1ccccc1N1CCN(CC[C@H]2CC[C@H](NC(=O)c3cc4ccccc4[nH]3)CC2)CC1 | 0.000257 | 9.59 | 0.0034 | 8.41 | –
O=C(N[C@H]1CC[C@H](CCN2CCc3ccc(Cl)cc3C2)CC1)c1cc2ccccc2[nH]1 | 2.09 | 5.68 | 0.148 | 6.83 | –
O=C(N[C@H]1CC[C@H](CCN2CCc3ccc(C(F)(F)F)cc3C2)CC1)c1cc2ccccc2[nH]1 | 0.891 | 6.05 | 0.759 | 6.12 | –
N#Cc1ccc2c(c1)CN(CC[C@H]1CC[C@H](NC(=O)c3cc4ccccc4o3)CC1)CC2 | 0.0182 | 7.74 | 0.282 | 6.55 | –
N#Cc1ccc2c(c1)CN(CCCCCCNC(=O)c1cc3ccccc3[nH]1)CC2 | 0.0301 | 7.52 | 0.269 | 6.57 | –
N#Cc1ccc2c(c1)CN(CCCCNC(=O)c1cc3ccccc3[nH]1)CC2 | 0.0812 | 7.09 | 0.158 | 6.8 | –
N#Cc1ccc2c(c1)CN(CC[C@H]1CC[C@H](NC(=O)[C@@H]3CCCN3)CC1)CC2 | 0.0275 | 7.56 | 0.0234 | 7.63 | –
N#Cc1ccc2c(c1)CNCC2 | – | – | – | – | 2.5
N#Cc1ccc2c(c1)CN(CC[C@H]1CC[C@H](NC(=O)c3ccc[nH]3)CC1)CC2 | 0.00331 | 8.48 | 0.0575 | 7.24 | –
O=C(N[C@H]1CC[C@H](CCN2CCN(c3cccc(Cl)c3Cl)CC2)CC1)c1cc2ccccc2[nH]1 | 0.00138 | 8.86 | 0.00525 | 8.28 | –
N#Cc1ccc2c(c1)CN(CCCNC(=O)c1cc3ccccc3[nH]1)CC2 | 0.138 | 6.86 | 0.372 | 6.43 | –
O=C(N[C@H]1CC[C@H](CCN2CCCc3ccccc3C2)CC1)c1cc2ccccc2[nH]1 | 2.57 | 5.59 | 2.51 | 5.6 | –
O=C(N[C@H]1CC[C@H](CCN2CCc3ccc(F)cc3C2)CC1)c1cc2ccccc2[nH]1 | 1.05 | 5.98 | 0.245 | 6.61 | –
